# Measured values published in patent publication US11498928B2, “Macrocyclic spiroethers as Mcl-1 inhibitors” (ASCENTAGE PHARMA (SUZHOU) CO., LTD., priority 2019, dated 2022).
# What was measured:
# [1] = molecular target: T1, Mcl-1 protein (residues 171-323) (Homo sapiens, UniProt Q07820); assay: Inhibition of Mcl-1 by fluorescence polarization (FP) competitive binding assay with FAM-Bid tracer; conditions: 2 nM FAM-Bid, 20 nM Mcl-1, 30 min
# T1 construct: Tag-free Mcl-1 protein (residues 171-323) was used in the FP assay
# Outline: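 Tag-free Mcl-1 (20 nM) with 2 nM FAM-Bid peptide in PBS, 0.01% BGG, 0.01% Triton X-100, 5% DMSO, 30 min at room temperature. FP read at Ex 485/Em 528 nm. IC50 from 10-point curves normalised to DMSO and no-protein controls.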
# NCI-H929 cells = assay: Cell viability assay (NCI-H929 cells), CCK-8; format: cell-based; conditions: 5% FBS
# Outline: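 NCI-H929 cells from ATCC were seeded at 20000 cells/well in 95 μL of culture medium in 96-well plates and grown for 4 hrs. Compounds, serially diluted in DMSO and further diluted in medium, were added as 5 μL, and cells were incubated for 24 hrs at 37° C. with 5% CO2. Viability was measured with CCK-8.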
# OPM-2 cells = assay: Cell viability assay (OPM-2 cells), CCK-8; format: cell-based; conditions: 5% FBS
# Outline: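 OPM-2 myeloma cells (20000/well) exposed to serially diluted compound for 24 h at 37 °C, 5% CO2, then incubated 4 h with CCK-8 and read at 450 nm. Readings normalized to vehicle; IC50 from nonlinear regression.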
# T1 sequence (Q07820 171-323): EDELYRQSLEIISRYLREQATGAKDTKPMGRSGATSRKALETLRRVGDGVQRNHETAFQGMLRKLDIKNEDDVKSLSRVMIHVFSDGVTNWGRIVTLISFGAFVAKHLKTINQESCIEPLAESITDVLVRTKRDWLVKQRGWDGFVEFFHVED
Compound,IC50 [1] [nM],"IC50 (NCI-H929 cells; Homo sapiens, NCI-H929, 24 h) [nM]","IC50 (OPM-2 cells; Homo sapiens, OPM-2, 24 h) [nM]",IC50 (NCI-H929 cells; 24 h) [nM],IC50 (OPM-2 cells; 24 h) [nM]
CO[C@@]1(CN2CCN(C(C)=O)CC2)C2=C[C@@H](C2)[C@H](C)[C@@H](C)S(=O)(=O)NC(=O)c2ccc3c(c2)N(C[C@@H]2CC[C@H]21)C[C@@]1(CCCc2c1ccc(Cl)c2F)CO3 [compound 49],11,12,186,–,–
"CCOC(=O)CO[C@H]1C2=C[C@@H](C2)[C@H](C)[C@@H](C)S(=O)(=O)NC(=O)c2ccc3c(c2)N(C[C@@H]2CC[C@H]21)C[C@@]1(CCCc2c1ccc(Cl)c2F)CO3 [compound 72, ethyl 2-(((1S,11′R,12′S,13′R,16′R,16a′R,18a′R,E)-6-chloro-5-fluoro-11′,12′-dimethyl-10′,10′-dioxido-8′-oxo-3,4,8′,9′,12′,13′,16′,16a′,17′,18′,18a′,19′-dodecahydro-1′H,2H,3′H,11′H-spiro[naphthalene-1,2′-[5,7]etheno[13,15]methanocyclobuta[i][1,4]oxazepino[3,4-f][1]thia[2,7]diazacyclohexadecin]-16′-yl)oxy)acetate]",14,70,89,–,–
"C[C@@H]1[C@@H](C)S(=O)(=O)NC(=O)c2ccc3c(c2)N(C[C@@H]2CC[C@H]2[C@@H](OCC(=O)N(C)C)C2=C[C@H]1C2)C[C@@]1(CCCc2c1ccc(Cl)c2F)CO3 [compound 64, 2-(((1 S, 11′R,12′S,13′R,16′R,16a′R,18a′R,E)-6-chloro-5-fluoro-11′,12′-dimethyl-10′,10′-dioxido-8′-oxo-3,4,8′,9′,12′,13′,16′,16a′,17′,18′,18a′,19′-dodecahydro-1′H,2H,3′H, 11′H-spiro[naphthalene-1,2′-[5,7]etheno[13,15]methanocyclobuta[i][1,4]oxazepino[3,4-f][1]thia[2,7]diazacyclohexadecin]-16′-yl)oxy)-N,N-dimethylacetamide]",14,9.4,120,–,–
"C[C@@H]1[C@@H](C)S(=O)(=O)NC(=O)c2ccc3c(c2)N(C[C@@H]2CC[C@H]2[C@@H](OCc2ncccn2)C2=C[C@H]1C2)C[C@@]1(CCCc2c1ccc(Cl)c2F)CO3 [compound 62, (1S,11′R,12′S,13′R,16′R,16a′R,18a′R,E)-6-chloro-5-fluoro-11′,12′-dimethyl-16′-(pyrimidin-2-ylmethoxy)-3,4,12′,13′,16′,16a′,17′,18′,18a′,19′-decahydro-1′H,2H,3′H,11′H-spiro[naphthalene-1,2′-[5,7]etheno[13,15]methanocyclobuta[i][1,4]oxazepino[3,4-f][1]thia[2,7]diazacyclohexadecin]-8′(9′H)-one 10′,10′-dioxide]",8.1,9.3,59,–,–
"CO[C@H]1C2=C[C@H](C2)[C@H](C)N(C[C@@H]2CCCO2)S(=O)(=O)NC(=O)c2ccc3c(c2)N(C[C@@H]2CC[C@H]21)C[C@@]1(CCCc2cc(Cl)ccc21)CO3 (single isomer, unassigned) [30 (isomer 1)]",6.2,2900,2310,–,–
"CO[C@@]1(CN2CCN3CCOC[C@@H]3C2)C2=C[C@@H](C2)[C@H](C)[C@@H](C)S(=O)(=O)NC(=O)c2ccc3c(n2)N(C[C@@H]2CC[C@H]21)C[C@@]1(CCCc2c1ccc(Cl)c2F)CO3 [compound 54, (1S,11′R,12′S,13′R,16′R,16a′R,18a′R,E)-6-chloro-5-fluoro-16′-(((S)-hexahydropyrazino[2,1-c][1,4]oxazin-8(1H)-yl)methyl)-16′-methoxy-11′,12′-dimethyl-3,4,12′,13′,16′,16a′,17′,18′,18a′,19′-decahydro-1′H,2H,3′H, 11′H-spiro[naphthalene-1,2′-[5,7]etheno[13,15]methanocyclobuta[i][1,4]oxazepino[3,4-f][1]thia[2,5,7]triazacyclohexadecin]-8′(9′H)-one 10′,10′-dioxide]",15,4.9,56,–,–
"CO[C@H]1C2=CC(C2)CC(C)S(=O)(=O)NC(=O)c2ccc3c(c2)N(C[C@@H]2CC[C@H]21)C[C@@]1(CCCc2cc(Cl)ccc21)CO3 (single isomer, unassigned) [11 (Isomer 2)]",6,–,–,2240,3860
"CO[C@@]1(CN2CCN(C)CC2)C2=C[C@@H](C2)[C@H](C)[C@@H](C)S(=O)(=O)NC(=O)c2ccc3c(c2)N(C[C@@H]2CC[C@H]21)C[C@@]1(CCCc2c1ccc(Cl)c2F)CO3 [compound 35, (1S,11′R,12′S,13′R,16′R,16a′R,18a′R,E)-6-chloro-5-fluoro-16′-methoxy-11′,12′-dimethyl-16′-((4-methylpiperazin-1-yl)methyl)-3,4,12′,13′,16′,16a′,17′,18′,18a′,19′-decahydro-1′H,2H,3′H, 11′H-spiro[naphthalene-1,2′-[5,7]etheno[13,15]methanocyclobuta[i][1,4]oxazepino[3,4-f][1]thia[2,7]diazacyclohexadecin]-8′(9′H)-one 10′,10′-dioxide]",14,2.4,32,–,–
"C[C@@H]1[C@@H](C)S(=O)(=O)NC(=O)c2ccc3c(c2)N(C[C@@H]2CC[C@H]2[C@](O)(CN2CCN4CCOC[C@H]4C2)C2=C[C@H]1C2)C[C@@]1(CCCc2c1ccc(Cl)c2F)CO3 [compound 48, (1S,11′R,12′S,13′R,16′R,16a′R,18a′R,E)-6-chloro-5-fluoro-16′-(((R)-hexahydropyrazino[2,1-c][1,4]oxazin-8(1H)-yl)methyl)-16′-hydroxy-11′,12′-dimethyl-3,4,12,′13′,16′,16a′,17′,18′,18a′,19′-decahydro-1′H,2H,3′H,11′H-spiro[naphthalene-1,2′-[5,7]etheno[13,15]methanocyclobuta[i][1,4]oxazepino[3,4-f][1]thia[2,7]diazacyclohexadecin]-8′(9′H)-one 10′,10′-dioxide]",18,28,69,–,–
"C[C@@H]1[C@@H](C)S(=O)(=O)NC(=O)c2ccc3c(c2)N(C[C@@H]2CC[C@H]2[C@@H](OCC(=O)N2CCOCC2)C2=C[C@H]1C2)C[C@@]1(CCCc2c1ccc(Cl)c2F)CO3 [compound 67, (1S,11′R,12′S,13′R,16′R,16a′R,18a′R,E)-6-chloro-5-fluoro-11′,12′-dimethyl-16′-(2-morpholino-2-oxoethoxy)-3,4,12′,13′,16′,16a′,17′,18′,18a′,19′-decahydro-1′H,2H,3′H, 11′H-spiro[naphthalene-1,2′-[5,7]etheno[13,15]methanocyclobuta[i][1,4]oxazepino[3,4-f][1]thia[2,7]diazacyclohexadecin]-8′(9′H)-one 10′,10′-dioxide]",15,97,77,–,–
"CNC[C@]1(OC)C2=C[C@@H](C2)[C@H](C)[C@@H](C)S(=O)(=O)NC(=O)c2ccc3c(c2)N(C[C@@H]2CC[C@H]21)C[C@@]1(CCCc2c1ccc(Cl)c2F)CO3 [compound 52, (1S,11′R,12′S,13′R,16′R,16a′R,18a′R,E)-6-chloro-5-fluoro-16′-methoxy-11′,12′-dimethyl-16′-((methylamino)methyl)-3,4,12′,13′,16′,16a′,17′,18′,18a′,19′-decahydro-1′H,2H,3′H,11′H-spiro[naphthalene-1,2′-[5,7]etheno[13,15]methanocyclobuta[i][1,4]oxazepino[3,4-f][1]thia[2,7]diazacyclohexadecin]-8′(9′H)-one 10′,10′-dioxide]",7,19,23,–,–
"COC1CCN(CCO[C@H]2C3=C[C@@H](C3)[C@H](C)[C@@H](C)S(=O)(=O)NC(=O)c3ccc4c(c3)N(C[C@@H]3CC[C@H]32)C[C@@]2(CCCc3c2ccc(Cl)c3F)CO4)CC1 [compound 75, (1S,11′R,12′S,13′R,16′R,16a′R,18a′R,E)-6-chloro-5-fluoro-16′-(2-(4-methoxypiperidin-1-yl)ethoxy)-11′,12′-dimethyl-3,4,12′,13′,16′,16a′,17′,18′,18a′,19′-decahydro-1′H,2H,3′H,11′H-spiro[naphthalene-1,2′-[5,7]etheno[13,15]methanocyclobuta[i][1,4]oxazepino[3,4-f][1]thia[2,7]diazacyclohexadecin]-8′(9′H)-one 10′,10′-dioxide]",36,51,41,–,–
"C[C@@H]1[C@@H](C)S(=O)(=O)NC(=O)c2ccc3c(c2)N(C[C@@H]2CC[C@H]2[C@@H](OCCN(C)S(C)(=O)=O)C2=C[C@H]1C2)C[C@@]1(CCCc2c1ccc(Cl)c2F)CO3 [compound 79, N-(2-(((1S,11′R,12′S,13′R,16′R,16a′R,18a′R,E)-6-chloro-5-fluoro-11′,12′-dimethyl-10′,10′-dioxido-8′-oxo-3,4,8′,9′,12′,13′,16′,16a′,17′,18′,18a′,19′-dodecahydro-1′H,2H,3′H, 11′H-spiro[naphthalene-1,2′-[5,7]etheno[13,15]methanocyclobuta[i][1,4]oxazepino[3,4-f][1]thia[2,7]diazacyclohexadecin]-16′-yl)oxy)ethyl)-N-methylmethanesulfonamide]",15,58,53,–,–
